Target: T1, PYL4 and HAB1 (Arabidopsis thaliana, UniProt O80920)
T1 construct: vector pHB3; made in house
T1 sequence (O80920 1-207): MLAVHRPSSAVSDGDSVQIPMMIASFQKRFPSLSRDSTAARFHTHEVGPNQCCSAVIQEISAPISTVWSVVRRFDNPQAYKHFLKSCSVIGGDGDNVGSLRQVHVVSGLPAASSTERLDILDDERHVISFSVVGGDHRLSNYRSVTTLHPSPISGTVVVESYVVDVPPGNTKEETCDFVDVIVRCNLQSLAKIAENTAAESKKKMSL
T1 sequence (Q9CAJ0 23-511 partner): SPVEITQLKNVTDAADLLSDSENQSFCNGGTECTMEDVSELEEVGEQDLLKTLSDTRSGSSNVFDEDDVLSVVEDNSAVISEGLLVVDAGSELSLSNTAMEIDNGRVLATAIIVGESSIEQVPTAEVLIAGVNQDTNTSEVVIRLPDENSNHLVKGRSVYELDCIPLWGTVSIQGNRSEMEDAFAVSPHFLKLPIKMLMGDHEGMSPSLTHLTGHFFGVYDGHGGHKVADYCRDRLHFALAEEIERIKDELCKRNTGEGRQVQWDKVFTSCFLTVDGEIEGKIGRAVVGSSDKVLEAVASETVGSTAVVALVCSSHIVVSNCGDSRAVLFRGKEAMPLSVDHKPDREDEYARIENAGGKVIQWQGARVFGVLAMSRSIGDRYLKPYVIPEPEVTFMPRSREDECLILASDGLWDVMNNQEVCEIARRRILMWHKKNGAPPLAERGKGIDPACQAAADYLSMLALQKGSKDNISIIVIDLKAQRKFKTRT
Assay: In vitro pull down assay of refolded PYL4 with HAB1
Format: binding
Experimental: To explore the functional implications of the PYR1-PP2C interaction, we examined if an ABA response could be reconstituted in vitro. Recombinant GST-HAB1, GST-ABI1 and GST-ABI2 were expressed in E. coli and tested for ligand-dependent interactions with 6×His-PYR1 in pull-down assays. Purified 6×His-PYR1 and GST-HAB1 (20 and 100 μg respectively, 8 μM PYR1 final concentration), were combined in 100 μl TBS containing 10 μM (+)-ABA or 1% DMSO for negative control. The reaction was incubated for 90 minutes at RT and 5 μl of PrepEase (USB) His-tagged protein purification resin was added. The resin and reaction mixture was incubated 30 min at RT with gentle shaking at 5 min intervals. The resin was washed five times with TBS containing 10 μM (+)-ABA. After the final wash, the bound protein was eluted in 20 μl SDS-PAGE buffer, boiled for 5 minutes and centrifuged. 5 μl of eluate was analyzed on SDS-PAGE. For pull-downs with ABI1 and ABI2, crude lysates were used in a similar method, except purified PP2C was replaced with cleared E. coli lysates. The amount of lysate added was determined by SDS-page analysis to yield ˜100 μg PP2C, such that the same stoichiometry was used as in assays using purified proteins.
A PYL4 6×His-tagged (SEQ ID NO:141) protein was constructed using a public pUni clone. This was recombined into the His-tagged expression vector pHB3. […]

Compound: CC1=CC(=O)CC(C)(C)[C@@]1(O)/C=C/C(C)=C\C(=O)O [ABA, Abscisic acid]
- PYL4 binding to HAB1 in pull down: binds HAB1 in response to ABA
